According to patent publication US20050245508A1, “Treatment of malignant gliomas with TGF-beta inhibitors” (SCIOS, Inc., priority 2003, published 2005):

System: CCL64 mink lung epithelial cells
Assay: CCL64 TGF-β bioassay (growth, crystal violet)
Assay type: cell-based
Conditions: human TGF-β1 and TGF-β2
Procedure: FIG. 1. Prevention of the growth inhibitory effects of recombinant and glioma-derived TGF-b1 and TGF-b2 by a TGF-β inhibitor (Compound No. 79 in Table 2). A. CCL64 cells were exposed to human recombinant TGF-b1 (filled symbols) or TGF-b2 (open symbols) (10 ng/ml) in the absence or presence of increasing concentrations of Comopund No. 79 for 72 h. B. CCL64 cells were maintained in serum-free medium containing heat-activated glioma cell SN (1:1) in the absence or presence of Compound No. 79 for 72 h. Growth was assessed by crystal violet assay (mean and SD, n=3).
The levels of bioactive TGF-β were determined using the CCL64 bioassay. Briefly, […] CCL64 cells were adhered to 96 well plates for 24 h, full medium was replaced by serum-free medium, and the cells were exposed to recombinant TGF-β1/2 or glioma cell culture supernatants diluted in serum-free medium for 72 h. Growth was assessed by crystal violet staining at 72 h. Glioma cell supernatants were harvested from confluent cultures maintained for 48 h in serum-free medium and heat-treated (5 min, 85° C.) to activate latent TGF-β (Leitlein et al., J. Immunol., 166:7238-7243 (2001)).

Substance | EC50 of growth inhibitory effect on CCL64 cells
TGF-β1: "Human recombinant TGF-β1 and TGF-β2 were obtained from Peprotech (London, UK)" | 0.5 ng/mL
TGF-β2: "Human recombinant TGF-β1 and TGF-β2 were obtained from Peprotech (London, UK)" | 0.5 ng/mL
